Assay results published in PMC6966871 (Journal of Hematology & Oncology, 2020).
Where two headings read alike, the source gives them in different places.

What was measured:
[1] = set-up: species or system human (Chinese patients); conditions: human, in vivo
Procedure: (§1) For the single-dose PK test in the cycle 0, serial peripheral blood samples were collected at pre-dose and at 0.5, 1, 2, 3, 4, 6, 8, 12, 16, 24, 48, 72, and 144 h post-dose. For the continuous dose PK test in the cycle 1, serial peripheral blood samples were collected at pre-dose on days 8, 15, 22, and 28, and at 0.5, 1, 2, 3, 4, 5, 6, 8, 12, 16, 24, 48, and 72 h post-dose on day 28. All serial peripheral blood samples were collected in heparin sodium anticoagulation tubes and centrifuged at 1900g for 10 min before storage at − 80 °C until analysis.

[2] = Continuous dose (QD) pharmacokinetics (cycle 1, day 28) in patients; assay type: in vivo, human (Chinese patients); conditions: continuous QD dosing, 100 mg to 800 mg
Procedure: as §1

[3] = system: advanced non-small cell lung cancer; assay: Tumor response assessed by investigators per RECIST v1.1; assay type: in vivo, human (Chinese patients); conditions: for Partial remission (PR) / Progressive disease (PD): number of patients (%)
c-MET [h] = system: c-MET [h]; set-up: method as in unpublished data; conditions: 0.2 μM in vitro; one range for all five kinases; ref unpublished data; cited from earlier work
AXL [h] = system: AXL [h]; set-up: method as in unpublished data; conditions: 0.2 μM in vitro; one range for all five kinases; ref unpublished data; cited from earlier work
KDR [h] = system: KDR [h]; set-up: method as in unpublished data; conditions: 0.2 μM in vitro; one range for all five kinases; ref unpublished data; cited from earlier work
DDR2[h] = system: DDR2[h]; set-up: method as in unpublished data; conditions: 0.2 μM in vitro; one range for all five kinases; ref unpublished data; cited from earlier work
Ron [h] = system: Ron [h]; set-up: method as in unpublished data; conditions: 0.2 μM in vitro; one range for all five kinases; ref unpublished data; cited from earlier work
VEGFR = system: VEGFR; set-up: method as in unpublished data; conditions: preclinical; ref unpublished data; read-out: IC50 against VEGFR; cited from earlier work
[4] = target: wild-type c-Met tyrosine kinase; conditions: enzymatic assay; read-out: IC50 against wild-type c-Met tyrosine kinase; cited from earlier work
EBC-1 cell line = conditions: read-out: IC50 against the growth of lung cancer EBC-1 cell line; cited from earlier work
AXL kinase = conditions: read-out: IC50 against AXL kinase; cited from earlier work
[5] = system: lung adenocarcinoma patient-derived xenograft (PDX); conditions: with overexpression of c-MET; ref our preclinical study; cited from earlier work
phosphorylation of c-MET = conditions: patient-derived xenograft tumors and MET-amplified cell lines, dose-dependent; cited from earlier work
METex14-altered NSCLC = system: METex14-altered NSCLC; set-up: method as in doi:10.1200/JCO.2016.34.15_suppl.108; conditions: METex14-altered NSCLC patients; cited from earlier work
[6] = set-up: method as in PMID 30718102; conditions: cited from earlier work
[7] = set-up: method as in PMID 30724423; conditions: cited from earlier work
EGFR-mutant NSCLC = system: EGFR-mutant NSCLC; set-up: method as in PMID 30156984; conditions: in combination with gefitinib, EGFR-mutant NSCLC progressed on previous gefitinib; cited from earlier work
[8] = 100 mg/qd group (printed 1 0 mg/qd), n = 4
[9] = 20 patients, AEs reported by > 20% of patients
[10] = safety population N = 20, 100–800 mg qd, number of patients (%)

Structure (SMILES): O=C(Nc1ccc(Oc2ccnc3c2CCN3)c(F)c1)c1c[nH]cc(-c2ccc(F)cc2)c1=O
- dose at which exposure (AUC and Cmax) reached saturation [1]: 600 mg
- dose proportionality of maximal plasma concentration (Cmax) [1]: increased obviously less than dose proportionally
- dose proportionality of plasma exposure (AUC0–last) [1]: increased slightly less than dose proportionally
- mean t1/2 (half-life) [1]: 7.9 to 37.3 h
- time after which steady-state concentration was reached [2]: 28 days
- Disease control rate, % (95%CI) [3, 8]: 0 (NA, NA) %
- Objective remission rate, % (95%CI) [3, 8]: 0 (NA, NA) %
- Partial remission (PR) [3, 8]: 0
- Progressive disease (PD) [3, 8]: 3 (100.0%)
- Disease control rate, % (95%CI) ([3]; 200 mg/qd group, n = 3): 66.7 (9.43, 99.16) %
- Objective remission rate, % (95%CI) ([3]; 200 mg/qd group, n = 3): 0 (NA, NA) %
- Partial remission (PR) ([3]; 200 mg/qd group, n = 3): 0
- Progressive disease (PD) ([3]; 200 mg/qd group, n = 3): 1 (33.3%)
- Disease control rate, % (95%CI) ([3]; 300 mg/qd group, n = 3): 66.7 (9.43, 99.16) %
- Objective remission rate, % (95%CI) ([3]; 300 mg/qd group, n = 3): 0 (NA, NA) %
- Partial remission (PR) ([3]; 300 mg/qd group, n = 3): 0
- Progressive disease (PD) ([3]; 300 mg/qd group, n = 3): 1 (33.3%)
- Disease control rate, % (95%CI) ([3]; 450 mg/qd group, n = 4): 50.0 (6.76, 93.24) %
- Objective remission rate, % (95%CI) ([3]; 450 mg/qd group, n = 4): 0 (NA, NA) %
- Partial remission (PR) ([3]; 450 mg/qd group, n = 4): 0
- Progressive disease (PD) ([3]; 450 mg/qd group, n = 4): 2 (50.0%)
- Disease control rate, % (95%CI) ([3]; 600 mg/qd group, n = 3): 66.7 (9.43, 99.16) %
- Objective remission rate, % (95%CI) ([3]; 600 mg/qd group, n = 3): 0 (NA, NA) %
- Partial remission (PR) ([3]; 600 mg/qd group, n = 3): 0
- Progressive disease (PD) ([3]; 600 mg/qd group, n = 3): 1 (33.3%)
- Disease control rate, % (95%CI) ([3]; 800 mg/qd group, n = 3): 100.0(29.24,100.0) %
- Objective remission rate, % (95%CI) ([3]; 800 mg/qd group, n = 3): 33.3 (0.84, 90.57) %
- Partial remission (PR) ([3]; 800 mg/qd group, n = 3): 1 (33.3%)
- Progressive disease (PD) ([3]; 800 mg/qd group, n = 3): 0
- patients with tumor burden reduced from baseline ([3]; 19 evaluable patients): 53%
- ORR ([3]; 19 evaluable patients, text (95% CI 0.1–26%)): 5%
- DCR ([3]; 19 evaluable patients, text (95% CI 34–80%)): 58%
- Disease control rate, % (95%CI) ([3]; Total, N = 20 (19 evaluable)): 57.9 (33.50, 79.75) %
- Objective remission rate, % (95%CI) ([3]; Total, N = 20 (19 evaluable)): 5.3 (0.13, 26.03) %
- Partial remission (PR) ([3]; Total, N = 20 (19 evaluable)): 1 (5.3%)
- Progressive disease (PD) ([3]; Total, N = 20 (19 evaluable)): 8 (42.1%)
- number of patients with a partial response ([3]; among 19 evaluable patients): 1
- number of patients with stable disease ([3]; among 19 evaluable patients): 10 patients
- DCR ([3]; patients (n = 11) with MET gene amplification or c-MET overexpression, exploratory): 82%
- ORR ([3]; patients without MET dysregulation (eight patients), exploratory): 0%
- inhibition of c-MET [h] (c-MET [h]): 88–100%
- AEs (any grades) leading to dose adjustment (600 mg/qd group): one patient
- AEs (any grades) leading to dose discontinuation (600 mg/qd group n = 2, 800 mg/qd group n = 2): four patients
- TRAE of grade 3 or higher: hypertension (20 patients): 15%
- TRAE of grade 3 or higher: laryngeal pain (20 patients): 5%
- TRAE of grade 3 or higher: pulmonary embolism (20 patients): 5%
- TRAE: constipation (20 patients): 30%
- TRAE: dysgeusia (20 patients): 40%
- TRAE: increased ALT / ALT elevation (20 patients): 40%
- gastrointestinal symptoms such as vomiting and diarrhea, frequency reported (20 patients): ≤ 10%
- patients experiencing grade 3 AEs (20 patients): 45%
- rate of dose reduction due to AEs (20 patients): 5%
- patients with TRAEs of grade 3 or higher during treatment (20 patients (300 mg/qd n = 1; 600 mg/qd n = 2; 800 mg/qd n = 1)): 20%
- patients with treatment-related AEs (20 patients, 100–800 mg qd): 85%
- TRAE: palmar-plantar erythrodysesthesia syndrome (20 patients, abstract): 15%
- TRAE: hypertension (20 patients, any grade): 25%
- AE (any cause): constipation [9]: 40%
- AE (any cause): dysgeusia [9]: 40%
- AE (any cause): hypertension [9]: 25%
- AE (any cause): increased alanine transaminase (ALT) [9]: 40%
- AE (any cause): increased conjugated bilirubin [9]: 25%
- AE (any cause): increased hemobilirubin [9]: 25%
- AE (any cause): nausea [9]: 25%
- dose-limiting toxicity (DLT) (doses up to 800 mg once daily): No dose-limiting toxicity (DLT) was observed
- maximum tolerated dose (MTD) (maximum dose investigated 800 mg QD): not reached
- serious adverse events (pulmonary embolism, 600 mg/qd group, probably related to study treatment): One serious adverse event
- Treatment-related adverse event: Constipation, Grade ≥ 3 [10]: 0
- Treatment-related adverse event: Constipation, any grade [10]: 6 (30%)
- Treatment-related adverse event: Dysgeusia, Grade ≥ 3 [10]: 0
- Treatment-related adverse event: Dysgeusia, any grade [10]: 8 (40%)
- Treatment-related adverse event: Hypertension, Grade ≥ 3 [10]: 3 (15%)
- Treatment-related adverse event: Hypertension, any grade [10]: 5 (25%)
- Treatment-related adverse event: Increase AST, Grade ≥ 3 [10]: 0
- Treatment-related adverse event: Increase AST, any grade [10]: 4 (20%)
- Treatment-related adverse event: Increased ALT, Grade ≥ 3 [10]: 0
- Treatment-related adverse event: Increased ALT, any grade [10]: 8 (40%)
- Treatment-related adverse event: Increased conjugated bilirubin, Grade ≥ 3 [10]: 0
- Treatment-related adverse event: Increased conjugated bilirubin, any grade [10]: 5 (25%)
- Treatment-related adverse event: Increased creatine phosphokinase, Grade ≥ 3 [10]: 0
- Treatment-related adverse event: Increased creatine phosphokinase, any grade [10]: 3 (15%)
- Treatment-related adverse event: Increased gamma-glutamyltransferase, Grade ≥ 3 [10]: 0
- Treatment-related adverse event: Increased gamma-glutamyltransferase, any grade [10]: 4 (20%)
- Treatment-related adverse event: Increased hemobilirubin, Grade ≥ 3 [10]: 0
- Treatment-related adverse event: Increased hemobilirubin, any grade [10]: 5 (25%)
- Treatment-related adverse event: Increased unconjugated bilirubin, Grade ≥ 3 [10]: 0
- Treatment-related adverse event: Increased unconjugated bilirubin, any grade [10]: 3 (15%)
- Treatment-related adverse event: Palmar-plantar erythrodysesthesia, Grade ≥ 3 [10]: 0
- Treatment-related adverse event: Palmar-plantar erythrodysesthesia, any grade [10]: 3 (15%)
- Treatment-related adverse event: Papulosis, Grade ≥ 3 [10]: 0
- Treatment-related adverse event: Papulosis, any grade [10]: 2 (10%)
- patients with drug discontinuation due to treatment-related AE (two patients in 600 mg/qd group and one in 800 mg/qd group): 15%
- inhibition of AXL [h] (AXL [h]): 88–100%
- inhibition of KDR [h] (KDR [h]): 88–100%
- inhibition of DDR2[h] (DDR2[h]): 88–100%
- inhibition of Ron [h] (Ron [h]): 88–100%
- IC50 (VEGFR): 30 nM
- IC50 [4]: 6 nM
- IC50 (EBC-1 cell line): 120 nM
- IC50 (AXL kinase): 9 nM
- tumor growth of lung adenocarcinoma [5]: significantly inhibited tumor growth
- phosphorylation of c-MET and downstream signaling targets (ERK, AKT) (phosphorylation of c-MET): inhibits the phosphorylation of c-MET

Structure (SMILES): C[C@@H](Oc1cc(-c2cnn(C3CCNCC3)c2)cnc1N)c1c(Cl)ccc(F)c1Cl [Crizotinib]
- unconfirmed response rate (METex14-altered NSCLC): up to 44%

Structure (SMILES): COc1cc2nccc(Oc3ccc(NC(=O)C4(C(=O)Nc5ccc(F)cc5)CC4)cc3)c2cc1OC [cabozantinib]
- rate of discontinuation due to an AE ([6]; Japanese NSCLC patients, phase 1): 10%
- AE: diarrhea [6]: 78%
- AE: hypertension [6]: 87%
- AE: increased ALT [6]: 95%
- AE: increased AST [6]: 95%
- AE: palmar-plantar erythrodysesthesia [6]: 100%
- patients who experienced ≥ grade 3 AEs [6]: 70%
- patients with dose reduction ([6]; dose-escalation cohorts, about): 30–40%
- patients with discontinuation ([6]; dose-escalation cohorts): 13%

Structure (SMILES): CNC(=O)c1ccc(-c2cnc3ncc(Cc4ccc5ncccc5c4)n3n2)cc1F [capmatinib]
- patients with one or more dose interruptions ([7]; 21 patients): 47.7%
- AE: decreased appetite [7]: 41%
- AE: diarrhea [7]: 25%
- AE: increased blood creatinine [7]: 52%
- AE: nausea [7]: 48
- AE: vomiting [7]: 39%
- AEs leading to discontinuation [7]: 9%
- adverse events leading to dose adjustment and/or interruption [7]: 59%
- patients with dose interruption only once ([7]; nine patients): 20.5%
- overall ORR (EGFR-mutant NSCLC): 27%
